Structures are written as SMILES.

A short description of data set [1]: CNS penetration. The data set is classed as in vivo. As to conditions: relative to N-(2,3,5-Trichlorophenyl)-4methoxy-3-piperazin-1-ylbenzenesulfonamide (Example 136 of WO 99/02502).
Data set [2] can be described thus: MEST (Maximal electroshock seizure threshold) test. Conditions: procedures described by Upton et al. The data set is classed as in vivo.
The nature of data set [3]: oral bioavailability. As to conditions: in vivo.

For the compound `COc1ccc(S(=O)(=O)Nc2cc(Cl)cc(Cl)c2OC)cc1N1CCNCC1` [compound of formula (I), N-(3,5-Dichloro-2-methoxy-phenyl)-4-methoxy-3-piperazin-1-yl-benzenesulfonamide], in data set [1], the CNS penetration entry was “enhanced”. Also, the “effect in MEST test” value in data set [2] is “strongly anti-convulsant effect”. For the same compound, the oral bioavailability entry in data set [3] is “high”.
As to `COc1ccc(S(=O)(=O)Nc2cc(Br)cc(F)c2Br)cc1N1CCNCC1` [Example 140 of WO 99/02502, N-(2,5-Dibromo-3-fluorophenyl)-4-methoxy-3-piperazin-1-ylbenzenesulfonamide, reference compound], the “effect in MEST test” value in data set [2] is “pro-convulsant effect”.
